According to US20100267561A1, “HERBICIDAL PYRIDAZINONE DERIVATIVES” (priority 2007, published 2010):

Assays:
Assay in all cases: Test E pre-/postemergence plant response
Type in all cases: in vivo
[1] = tested on: Russian thistle (Salsola kali); conditions: Preemergence, scale 0 to 100
How it was run: (§1)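 Formulated in a non-phytotoxic solvent mixture containing surfactant, compound was applied to soil at planting or sprayed on emerged plants at the 1- to 4-leaf stage. Visual comparison with controls followed 14 to 21 days in the greenhouse; 0 = no effect, 100 = complete control.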

[2] = tested on: Canada horseweed (Conyza canadensis); conditions: Postemergence, scale 0 to 100
How it was run: as §1

[3] = tested on: field bindweed (Convolvulus arvensis); conditions: scale 0 to 100
How it was run: as §1

[4] = tested on: Virginia (V.) dayflower (Commelina virginica); conditions: scale 0 to 100
How it was run: as §1

[5] = tested on: common ragweed (Ambrosia elation); conditions: scale 0 to 100
How it was run: as §1

[6] = tested on: kochia (Kochia scoparia); conditions: scale 0 to 100
How it was run: as §1

[7] = tested on: common sowthistle (Sonchus oleraceous); conditions: scale 0 to 100
How it was run: as §1

[8] = tested on: prickly sida (Sida spinosa); conditions: scale 0 to 100
How it was run: as §1

[9] = tested on: spanishneedles (Bidens bipinnata); conditions: scale 0 to 100
How it was run: as §1

[10] = tested on: tropical (T.) spiderwort (Commelina benghalensis); conditions: scale 0 to 100
How it was run: as §1

CCc1cc(-c2ccc(C(F)(F)F)cc2)nn1-c1c(O)cnn(C)c1=O [Compound 11, 4-[5-ethyl-3-[4-(trifluoromethyl)phenyl]-1H-pyrazol-1-yl]-5-hydroxy-2-methyl-3(2H)-pyridazinone]
0: Plant response rating, Thistle, Russian ([1]; 31 g ai/ha) | Plant response rating, Horseweed ([2]; 4 g ai/ha) | Plant response rating, Horseweed ([2]; 8 g ai/ha) | Plant response rating, Horseweed ([2]; 16 g ai/ha) | Plant response rating, Horseweed ([2]; 31 g ai/ha) | Plant response rating, Field Bindweed ([3]; 4 g ai/ha, Postemergence) | Plant response rating, Field Bindweed ([3]; 8 g ai/ha, Preemergence) | Plant response rating, Field Bindweed ([3]; 16 g ai/ha, Preemergence) | Plant response rating, Field Bindweed ([3]; 31 g ai/ha, Preemergence) | Plant response rating, Field Bindweed ([3]; Postemergence, 8 g ai/ha) | Plant response rating, Field Bindweed ([3]; Postemergence, 16 g ai/ha) | Plant response rating, Field Bindweed ([3]; Postemergence, 31 g ai/ha) | Plant response rating, Field Bindweed ([3]; Preemergence, 4 g ai/ha) | Plant response rating, Dayflower, V. ([4]; 4 g ai/ha, Postemergence) | Plant response rating, Dayflower, V. ([4]; 8 g ai/ha, Preemergence) | Plant response rating, Dayflower, V. ([4]; 16 g ai/ha, Preemergence) | Plant response rating, Dayflower, V. ([4]; 31 g ai/ha, Preemergence) | Plant response rating, Dayflower, V. ([4]; Postemergence, 8 g ai/ha) | Plant response rating, Dayflower, V. ([4]; Postemergence, 16 g ai/ha) | Plant response rating, Dayflower, V. ([4]; Postemergence, 31 g ai/ha) | Plant response rating, Dayflower, V. ([4]; Preemergence, 4 g ai/ha) | Plant response rating, Ragweed ([5]; 4 g ai/ha, Postemergence) | Plant response rating, Ragweed ([5]; 16 g ai/ha, Preemergence) | Plant response rating, Ragweed ([5]; 31 g ai/ha, Preemergence) | Plant response rating, Ragweed ([5]; Postemergence, 8 g ai/ha) | Plant response rating, Ragweed ([5]; Postemergence, 16 g ai/ha) | Plant response rating, Ragweed ([5]; Postemergence, 31 g ai/ha) | Plant response rating, Ragweed ([5]; Preemergence, 4 g ai/ha) | Plant response rating, Kochia ([6]; 4 g ai/ha, Postemergence) | Plant response rating, Kochia ([6]; 16 g ai/ha, Preemergence) | Plant response rating, Kochia ([6]; 31 g ai/ha, Preemergence) | Plant response rating, Kochia ([6]; Postemergence, 8 g ai/ha) | Plant response rating, Kochia ([6]; Postemergence, 16 g ai/ha) | Plant response rating, Kochia ([6]; Postemergence, 31 g ai/ha) | Plant response rating, Kochia ([6]; Preemergence, 4 g ai/ha) | Plant response rating, Sowthistle ([7]; 4 g ai/ha, Postemergence) | Plant response rating, Sowthistle ([7]; 16 g ai/ha, Preemergence) | Plant response rating, Sowthistle ([7]; Postemergence, 8 g ai/ha) | Plant response rating, Sowthistle ([7]; Postemergence, 16 g ai/ha) | Plant response rating, Sowthistle ([7]; Postemergence, 31 g ai/ha) | Plant response rating, Prickly Sida ([8]; 4 g ai/ha, Postemergence) | Plant response rating, Prickly Sida ([8]; 16 g ai/ha, Preemergence) | Plant response rating, Prickly Sida ([8]; 31 g ai/ha, Preemergence) | Plant response rating, Prickly Sida ([8]; Postemergence, 8 g ai/ha) | Plant response rating, Prickly Sida ([8]; Postemergence, 16 g ai/ha) | Plant response rating, Prickly Sida ([8]; Postemergence, 31 g ai/ha) | Plant response rating, Prickly Sida ([8]; Preemergence, 4 g ai/ha) | Plant response rating, Spanishneedles ([9]; 4 g ai/ha, Postemergence) | Plant response rating, Spanishneedles ([9]; 16 g ai/ha, Preemergence) | Plant response rating, Spanishneedles ([9]; 31 g ai/ha, Preemergence) | Plant response rating, Spanishneedles ([9]; Postemergence, 8 g ai/ha) | Plant response rating, Spanishneedles ([9]; Postemergence, 16 g ai/ha) | Plant response rating, Spanishneedles ([9]; Postemergence, 31 g ai/ha) | Plant response rating, Spanishneedles ([9]; Preemergence, 4 g ai/ha)

Cn1ncc(O)c(-c2nn(-c3ccc(Cl)cc3)cc2Br)c1=O [Compound 31]
0: Plant response rating, Spiderwort, T. ([10]; 16 g ai/ha, Preemergence) | Plant response rating, Spiderwort, T. ([10]; 31 g ai/ha, Preemergence) | Plant response rating, Spiderwort, T. ([10]; 62 g ai/ha, Preemergence) | Plant response rating, Spiderwort, T. ([10]; Postemergence, 8 g ai/ha) | Plant response rating, Spiderwort, T. ([10]; Postemergence, 16 g ai/ha) | Plant response rating, Spiderwort, T. ([10]; Postemergence, 31 g ai/ha) | Plant response rating, Spiderwort, T. ([10]; Postemergence, 62 g ai/ha)

COC(=O)Oc1cnn(C)c(=O)c1-n1nc(-c2ccc(Cl)cc2)cc1C [Compound 33]
0: Plant response rating, Spiderwort, T. ([10]; 16 g ai/ha, Preemergence) | Plant response rating, Spiderwort, T. ([10]; 31 g ai/ha, Preemergence) | Plant response rating, Spiderwort, T. ([10]; 62 g ai/ha, Preemergence) | Plant response rating, Spiderwort, T. ([10]; Postemergence, 8 g ai/ha) | Plant response rating, Spiderwort, T. ([10]; Postemergence, 16 g ai/ha) | Plant response rating, Spiderwort, T. ([10]; Postemergence, 62 g ai/ha)

Cc1cc(-c2ccc(Cl)cc2)nn1-c1c(OC(=O)C(C)C)cnn(C)c1=O [Compound 34]
0: Plant response rating, Thistle, Russian ([1]; 16 g ai/ha) | Plant response rating, Thistle, Russian ([1]; 31 g ai/ha) | Plant response rating, Thistle, Russian ([1]; 62 g ai/ha) | Plant response rating, Dayflower, V. ([4]; 16 g ai/ha, Preemergence) | Plant response rating, Dayflower, V. ([4]; 31 g ai/ha, Preemergence) | Plant response rating, Dayflower, V. ([4]; 62 g ai/ha, Preemergence) | Plant response rating, Dayflower, V. ([4]; Postemergence, 8 g ai/ha) | Plant response rating, Dayflower, V. ([4]; Postemergence, 16 g ai/ha) | Plant response rating, Dayflower, V. ([4]; Postemergence, 31 g ai/ha) | Plant response rating, Dayflower, V. ([4]; Postemergence, 62 g ai/ha) | Plant response rating, Kochia ([6]; 16 g ai/ha, Preemergence) | Plant response rating, Kochia ([6]; 31 g ai/ha, Preemergence) | Plant response rating, Kochia ([6]; 62 g ai/ha, Preemergence) | Plant response rating, Sowthistle ([7]; 16 g ai/ha, Preemergence) | Plant response rating, Sowthistle ([7]; 31 g ai/ha, Preemergence) | Plant response rating, Sowthistle ([7]; 62 g ai/ha, Preemergence) | Plant response rating, Sowthistle ([7]; Postemergence, 8 g ai/ha) | Plant response rating, Sowthistle ([7]; Postemergence, 16 g ai/ha) | Plant response rating, Sowthistle ([7]; Postemergence, 31 g ai/ha) | Plant response rating, Sowthistle ([7]; Postemergence, 62 g ai/ha) | Plant response rating, Prickly Sida ([8]; 16 g ai/ha, Preemergence) | Plant response rating, Prickly Sida ([8]; 31 g ai/ha, Preemergence) | Plant response rating, Prickly Sida ([8]; 62 g ai/ha, Preemergence) | Plant response rating, Prickly Sida ([8]; Postemergence, 8 g ai/ha) | Plant response rating, Prickly Sida ([8]; Postemergence, 16 g ai/ha) | Plant response rating, Prickly Sida ([8]; Postemergence, 31 g ai/ha) | Plant response rating, Prickly Sida ([8]; Postemergence, 62 g ai/ha)

Cc1cc(-c2ccc(Cl)cc2)nn1-c1c(OS(C)(=O)=O)cnn(C)c1=O [Compound 36]
0: Plant response rating, Spiderwort, T. ([10]; 16 g ai/ha, Preemergence) | Plant response rating, Spiderwort, T. ([10]; 31 g ai/ha, Preemergence) | Plant response rating, Spiderwort, T. ([10]; 62 g ai/ha, Preemergence) | Plant response rating, Spiderwort, T. ([10]; Postemergence, 8 g ai/ha) | Plant response rating, Spiderwort, T. ([10]; Postemergence, 16 g ai/ha) | Plant response rating, Spiderwort, T. ([10]; Postemergence, 31 g ai/ha) | Plant response rating, Spiderwort, T. ([10]; Postemergence, 62 g ai/ha)

CCc1cc(-c2ccc(Cl)cc2)nn1-c1c(OS(C)(=O)=O)cnn(C)c1=O [Compound 39]
0: Plant response rating, Spiderwort, T. ([10]; 16 g ai/ha, Preemergence) | Plant response rating, Spiderwort, T. ([10]; 31 g ai/ha, Preemergence) | Plant response rating, Spiderwort, T. ([10]; 62 g ai/ha, Preemergence) | Plant response rating, Spiderwort, T. ([10]; Postemergence, 8 g ai/ha) | Plant response rating, Spiderwort, T. ([10]; Postemergence, 16 g ai/ha) | Plant response rating, Spiderwort, T. ([10]; Postemergence, 31 g ai/ha) | Plant response rating, Spiderwort, T. ([10]; Postemergence, 62 g ai/ha)
